Laboratory results as given in paper PMC9364316, “Macromolecular and Solution Properties of the Recombinant Fusion Protein HUG” (Biomacromolecules, 2022).

Target: T1, HUG (HELP-UnaG) (Anguilla japonica, UniProt P0DM59)
T1 construct: entire UnaG (139 aa) fused to the C-terminus of the synthetic human elastin-like polypeptide HELP (536 aa, VAPGVG hexapeptide repeats); fusion of 675 aa, 60,406 Da; expressed in E. coli, purified by inverse phase transition
Test: fluorescence titration (ex […] nm, em […] nm), nonlinear fit of […] binding model

T1 sequence (P0DM59 whole entry, the tested form may be a part): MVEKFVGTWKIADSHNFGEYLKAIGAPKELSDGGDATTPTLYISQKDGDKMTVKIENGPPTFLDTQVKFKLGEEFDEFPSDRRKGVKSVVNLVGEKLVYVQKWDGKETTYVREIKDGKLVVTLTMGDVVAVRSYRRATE

- Kd: 1.1 nM
SMILES: C=CC1=C(C)/C(=C/c2[nH]c(Cc3[nH]c(/C=C4\NC(=O)C(C)=C4C=C)c(C)c3CCC(=O)O)c(CCC(=O)O)c2C)NC1=O [bilirubin]
